Assay: Ratio between antioxidant activities determined employing ABTS and DPPH methods

Ratio	Compound
160	COc1cc(O)cc2oc(-c3ccccc3)c(OC(C)=O)c(=O)c12
6.6	COc1cc(-c2oc3cc(O)cc(OC)c3c(=O)c2OC)ccc1O
6.8	COc1c(-c2ccccc2)oc2cc(O)cc(OC)c2c1=O
170	COc1cc(O)cc2oc(-c3ccccc3)cc(=O)c12

The remaining lines, values behind:

Compound	Ratio
COc1ccc(-c2cc(=O)c3c(OC)cc(O)cc3o2)cc1O	126
COc1cc(OC)c2c(=O)c(OC)c(-c3ccc(O)c(OC)c3)oc2c1	125
COc1cc(O)cc2oc(-c3ccc(O)cc3)cc(=O)c12	143
COc1cc(O)c2c(=O)cc(-c3ccc(O)c(O)c3)oc2c1	3.4

Source: ChEMBL document CHEMBL1142829, “Structure-antioxidant activity relationships of flavonoids isolated from the resinous exudate of Heliotropium sinuatum” (Bioorg Med Chem Lett, 2005)
